According to patent publication US8193213B2, “Spermicidal and/or antifungal composition and methods of using the same” (priority 2003, dated 2012):
Marks after values point to notes of the source that are not given here. Each block holds one compound with its values, some of them ahead of it.

How the values were obtained:
Candida albicans = assay: Antifungal susceptibility testing (NCCLS, MIC/MFC) against C. albicans; format: cell-based; design: Lowest [Active]: unit not given here; settings: for CFU for MFC at 200: concentration 200; for CFU for MFC at 300: concentration 300; for Lowest [Active]: concentrations 300, 200, 100, unit not given, N/A = no active concentration; for Lowest MIC: lowest concentration that appears to have no growth; for Lowest MFC: lowest concentration that kills >= 98% of the cells in the well
Method: (§1) Antifungal susceptibility testing was performed following the NCCLS guidelines with minor modifications. Briefly, a suspension of Candida albicans cells was prepared from pure cultures grown overnight on yeast-malt extract (YM) agar at 35° C. Several small colonies were removed from a YM agar plate and transferred to 5 ml of 0.85% saline. The cells were suspended by 15 seconds of vortexing and the cell density of the resulting suspension was determined using a spectrophotometer. The cell density was adjusted by addition of 0.85% saline until the transmittance matched that of a 0.5 McFarland standard when measured at a wavelength of 530 nm. An aliquot of this suspension was diluted 1:1000 in RPMI-MOPS to yield a working suspension. A similar suspension of Aspergillus fumigatus spores was obtained by using spores stored at […] in 0.85% saline. These spores were diluted in 0.85% saline to match the McFarland standard transmittance. This suspension was then further diluted 1:50 in RPMI-MOPS to produce the working inoculum suspension.
(§2) Dilution series of the test compounds were made in RPMI-MOPS containing 2% DMSO. An aliquot of each dilution was added in duplicate to the wells of a sterile 96-well, flat bottom microtiter plate. Then, an aliquot of either the C. albicans cell suspension or the A. fumigatus spore suspension were added to each well for a final volume of 200 μl. The plates were then incubated at […]. […] A similar determination was made for the A. fumigatus plates after 48 hours. […] The numbers of colony forming units (CFU) were counted and these values used to calculate the percent survival of cells or spores in inocula relative to the number of CFUs in the working inoculum suspension. The minimum fungicidal concentration (MFC) was the lowest concentration of test compound with a percent survival of less than 2%.

Aspergillus fumigatus = assay: Antifungal susceptibility testing (NCCLS, MIC/MFC) against A. fumigatus; format: cell-based; design: Lowest [Active]: unit not given here; settings: for CFU for MFC at 100 / CFU for MFC at 200 / CFU for MFC at 300 / Lowest [Active]: A. fumigatus (48 hours); for CFU for MFC at 100: concentration 100; for CFU for MFC at 200: concentration 200; for CFU for MFC at 300: concentration 300; for Lowest [Active]: concentrations 300, 200, 100, unit not given, N/A = no active concentration; for Lowest MIC / Lowest MFC: A. fumigatus; for Lowest MIC: lowest concentration that appears to have no growth; for Lowest MFC: lowest concentration that kills >= 98% of the cells in the well
Method: as §1, §2

adult male Swiss mice = assay: Antispermatogenic screen: single gavage dose to male mice, testes weight and Spermatogenic Index at 72 h; format: in vivo; settings: Table 2, day 3 (72 h), vehicle 1% Tween20 in water
Method: The compounds of the invention were tested in mice for their effects on spermatogenesis three days after a single oral dose by the procedure described in Cook et al (1995) below. Compounds active in this test have been shown also to be anti-fertility compounds.
Compounds were screened for antispermatogenic activity by dosing male mice on day 1 with a gavage dose of control vehicle, positive control (compound 1) or compound of the invention. At 72 h after dosing, animals were killed and the testes were excised, trimmed of fat, and weighed. One testis was examined histologically and rated for spermatogenic potential using the Spermatogenic Index (J. M. Whitsett, P. F. Noden, J. Cherry and A. D. Lawton, J. Reprod. Fertil., 72, 277 (1984), which is a semiquantitative estimate of the sperm producing ability of the testes The index is based on histological appearance of the spermatogenic cells in the seminiferous tubules. A scale of 1 to 6 is used with 5 to 6 being the normal status. A second assessment was based on the weight of the testes.
Tables 1 and 2 show pertinent biological results in terms of the change in testes weight (TW) and spermatogenic index (SI) relative to a control containing only the administration vehicle, but no indenopyridine. In Tables 1 and 2, R^3 and R^4 refer to structures Ib, where R^3 is in the para position; R^1 is ethyl; R^2 is methyl; and R^5 is hydrogen.

- Lowest MIC (Candida albicans; C. albicans): 100 µg/mL
- Lowest MIC (Aspergillus fumigatus): 50 µg/mL
SMILES: CCc1ccc2c(c1)[C@@H](c1ccc(C(=O)OC)cc1)[C@@H]1CCN(CC)C[C@H]21.Cl (racemic) [Compound 4587-064]
- CFU for MFC at 100 (Candida albicans; C. albicans (19 hours), concentration 100): Static (Static = well looked clear, but <98% killed)
- CFU for MFC at 200 (Candida albicans; C. albicans (19 hours)): Cidal (Cidal = >98% killed)
- CFU for MFC at 300 (Candida albicans; C. albicans (19 hours)): Cidal (Cidal = >98% killed)
- Lowest [Active] (Candida albicans; C. albicans (19 hours)): 100
- Lowest MFC (Candida albicans; C. albicans): 100 µg/mL
- CFU for MFC at 100 (Aspergillus fumigatus): Cidal (Cidal = >98% killed)
- CFU for MFC at 200 (Aspergillus fumigatus): Cidal (Cidal = >98% killed)
- CFU for MFC at 300 (Aspergillus fumigatus): Cidal (Cidal = >98% killed)
- Lowest [Active] (Aspergillus fumigatus): 100
- Lowest MFC (Aspergillus fumigatus): 75 µg/mL

SMILES: CCN1CC[C@@H]2[C@@H](c3ccc(C(=O)OC)cc3)c3cc(C)ccc3[C@@H]2C1.Cl (single isomer, unassigned) [3 (l), (1)-Enantiomer of (4aRS,5SR,9bRS)-2-Ethyl-2,3,4,4a,5,9b-hexahydro-7-methyl-5-(4-carbomethoxyphenyl)-1H-indeno[1,2-c]pyridine Hydrochloride]
- SI change (%) (Spermatogenic Index, % change from vehicle control) (adult male Swiss mice; 1 mg/kg single gavage dose): 3%
- TW change (%) (testes weight, % change from vehicle control) (adult male Swiss mice; 1 mg/kg single gavage dose): 8%
- SI change (%) (Spermatogenic Index, % change from vehicle control) (adult male Swiss mice; 3 mg/kg single gavage dose): −2%
- TW change (%) (testes weight, % change from vehicle control) (adult male Swiss mice; 3 mg/kg single gavage dose): −12%
- SI change (%) (Spermatogenic Index, % change from vehicle control) (adult male Swiss mice; 10 mg/kg single gavage dose): −33%*
- TW change (%) (testes weight, % change from vehicle control) (adult male Swiss mice; 10 mg/kg single gavage dose): −13%
- SI change (%) (Spermatogenic Index, % change from vehicle control) (adult male Swiss mice; 30 mg/kg single gavage dose): −64%*
- TW change (%) (testes weight, % change from vehicle control) (adult male Swiss mice; 30 mg/kg single gavage dose): −30%*

SMILES: CCN1CCC2C(C1)c1cc(I)c(C)cc1C2c1ccc(C(=O)OC)cc1 (single isomer, unassigned) [18 (l)]
- SI change (%) (Spermatogenic Index, % change from vehicle control) (adult male Swiss mice; 0.3 mg/kg single gavage dose): −34%*
- TW change (%) (testes weight, % change from vehicle control) (adult male Swiss mice; 0.3 mg/kg single gavage dose): −11%*
- SI change (%) (Spermatogenic Index, % change from vehicle control) (adult male Swiss mice; 1 mg/kg single gavage dose): −66%*
- TW change (%) (testes weight, % change from vehicle control) (adult male Swiss mice; 1 mg/kg single gavage dose): −21%*
- SI change (%) (Spermatogenic Index, % change from vehicle control) (adult male Swiss mice; 3 mg/kg single gavage dose): −71%*
- TW change (%) (testes weight, % change from vehicle control) (adult male Swiss mice; 3 mg/kg single gavage dose): −27%*
- SI change (%) (Spermatogenic Index, % change from vehicle control) (adult male Swiss mice; 10 mg/kg single gavage dose): −72%*
- TW change (%) (testes weight, % change from vehicle control) (adult male Swiss mice; 10 mg/kg single gavage dose): −31%*

- Lowest MIC (Candida albicans; C. albicans): 0.5 µg/mL
- Lowest MIC (Aspergillus fumigatus): 2 µg/mL
SMILES: C[C@@H]1[C@H](O)[C@@H](C)/C=C/C=C/C=C/C=C/C=C/C=C/C=C/[C@H](O[C@@H]2O[C@H](C)[C@@H](O)[C@H](N)[C@@H]2O)C[C@@H]2O[C@](O)(C[C@@H](O)C[C@@H](O)[C@H](O)CC[C@@H](O)C[C@@H](O)CC(=O)O[C@H]1C)C[C@H](O)[C@H]2C(=O)O [AMP B, reference compound]

SMILES: CCN1CCC2C(C1)c1ccc(C)cc1C2c1ccc(C)cc1.Cl (stereo not drawn) [Compound 4587-002d]
- Lowest MFC (class word) (Candida albicans; C. albicans): fungistatic (Fungistatic = compound with an MIC, but <98% of cells killed)
- Lowest MIC (Candida albicans; C. albicans): 50 µg/mL
- Lowest MIC (Aspergillus fumigatus): 50 µg/mL
- Lowest MFC (Aspergillus fumigatus): 50 µg/mL

SMILES: CCN1CCC2C(C1)c1ccc(C)cc1C2c1ccc(C)cc1.Cl (stereo not drawn) [Compound 4587-002l]
- Lowest MIC (Candida albicans; C. albicans): 75 µg/mL
- Lowest MFC (Candida albicans; C. albicans): 100 µg/mL
- Lowest MIC (Aspergillus fumigatus): 50 µg/mL
- Lowest MFC (Aspergillus fumigatus): 75 µg/mL

SMILES: CCN1CCC2C(C1)c1ccc(C)cc1C2c1ccc(C)cc1.Cl (stereo not drawn) [Compound 4587-003]
- Lowest MIC (Candida albicans; C. albicans): 50 µg/mL
- Lowest MFC (Candida albicans; C. albicans): 75 µg/mL
- Lowest MIC (Aspergillus fumigatus): 25 µg/mL
- Lowest MFC (Aspergillus fumigatus): 25 µg/mL

SMILES: CCN1CCC(C(c2ccc(C)cc2)c2cccc(C)c2)CC1.Cl (stereo not drawn) [Compound 4587-006]
- CFU for MFC at 300 (Candida albicans; C. albicans (19 hours)): Static (Static = well looked clear, but <98% killed)
- Lowest [Active] (Candida albicans; C. albicans (19 hours)): 300

SMILES: CCN1CCC2C(C1)c1ccc(C)cc1C2c1ccc(C(=O)OC)cc1.Cl (stereo not drawn) [Compound 4587-056l]
- CFU for MFC at 200 (Candida albicans; C. albicans (19 hours)): Cidal (Cidal = >98% killed)
- CFU for MFC at 300 (Candida albicans; C. albicans (19 hours)): Cidal (Cidal = >98% killed)
- Lowest [Active] (Candida albicans; C. albicans (19 hours)): 200
- CFU for MFC at 100 (Aspergillus fumigatus): Cidal (Cidal = >98% killed)
- CFU for MFC at 200 (Aspergillus fumigatus): Cidal (Cidal = >98% killed)
- CFU for MFC at 300 (Aspergillus fumigatus): Cidal (Cidal = >98% killed)
- Lowest [Active] (Aspergillus fumigatus): 100
